US4820723A, “Disubstituted tetrazole leukotriene antagonists and methods for their use thereas” (Eli Lilly and Company, priority 1987, dated 1989)

Columns and labels:
[1] = system: pressor response to leukotriene D4; assay: decrease of LTD4 pressor response in pithed rats; assay type: in vivo, Adult male Sprague-Dawley rats; details: Rattus norvegicus, iv, 0.25 h, 15 minutes prior to leukotriene D4 challenge (10 μg/kg, i.v.); dose to decrease pressor response by 50%
Procedure: A further measure of the final product's activity is their ability to decrease the pressor response in pithed rats that are challenged by LTD4. This activity is measured by the following standard procedure
Adult male Sprague-Dawley rats, weighting approximately 300-500 grams, are anesthetized with pentobarbital sodium (60 mg/kg, i.p.). The trachea is cannulated and the rats are ventilated with room air delivered from a rodent respirator (Harvard, model 680; tidal volume of 1 ml/100 grams body weight, 60 cycles/minute). Rats are pithed by passing a steel rod through the right orbit and down the entire length of the spinal column. The rod is left in position for the duration of the experiment. Pulsatile arterial blood pressure is measured from a cannulated carotid artery using a Stathamtransducer (P231D). Mean arterial blood pressure is calculated as diastolic pressure plus 1/3 pulse pressure. Drug solutions are administered i.v. through a catheter placed in a jugular vein. Arterial blood pressure is recorded on a multichannel oscillograph (Beckman, model R511A).
Groups of pithed rats, usually 4-6/group, are pretreated i.v. with a dose of test compound or vehicle (control experiments) 15 minutes prior to leukotriene D4 challenge (10 μg/kg, i.v.). Usually 3-4 doses of the test compound are evaluated in a given study. Blood pressure responses to leukotriene D4 in control and drug-treated pithed rats are then compared and an ED50 dose of antagonist is estimated. ED50 (95% confidence interval) is the calculated dose of antagonist (mg/kg, i.v.) required to decrease the pressor response to leukotriene D4 by 50%.
The ED50 values of selected final products of Formula I are set forth below in Table 2.

[2] = target: T1, LTD4 in guinea pig ileum and trachea (Cavia porcellus, UniProt Q2NNR5); assay: cumulative concentration-response curves to LTD4 in guinea pig ileum and trachea (KB by method of Furchgott); details: negative log of the dissociation KB, 30 minute incubation, LTD4 agonist
T1 construct: from tissue; host or cells: isolated ileum and trachea of guinea pigs (male Hartley stated for the ileum test)
T1 sequence (Q2NNR5 1-340): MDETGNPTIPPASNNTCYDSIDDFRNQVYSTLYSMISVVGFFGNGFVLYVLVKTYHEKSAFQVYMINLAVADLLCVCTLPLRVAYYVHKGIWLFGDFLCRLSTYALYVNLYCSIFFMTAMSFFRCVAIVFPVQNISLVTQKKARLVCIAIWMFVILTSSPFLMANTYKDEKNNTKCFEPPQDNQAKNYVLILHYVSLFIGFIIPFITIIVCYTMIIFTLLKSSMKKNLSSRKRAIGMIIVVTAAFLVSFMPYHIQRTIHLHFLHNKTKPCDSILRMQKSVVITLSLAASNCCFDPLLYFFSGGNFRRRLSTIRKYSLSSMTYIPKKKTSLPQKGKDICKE
Procedure: (§1) Male, Hartley guinea pigs weighing 200-450 grams were killed by decapitation. A section of terminal ileum was removed, the lumen cleaned, and the tissue divided into 2.5 cm segments. The ilea were mounted in 10 ml tissue baths containing Krebs-bicarbonate solution of the following composition in mmoles/liter: KCl, 4.6; CaCl2 ·2H2 O, 1.2; KH2 PO4, 1.2; MgSO4 ·7H2 O, 1.2; NaCl, 118.2; NaHCO3, 24.8; and dextrose, 10.0. The bath fluid was maintained at 37° C. and aerated with 95 percent oxygen and 5 percent CO2. In addition, the buffer contained 1×10^-6 M atropine to reduce ileal spontaneous activity. Isometric measurements were made with a Grass FT03C force-displacement transducer and recorded on a Grass polygraph as change in grams of force. A passive force of 0.5 g. was applied to the tissues. After an appropriate equilibration period, single submaximal control responses to pure LTD4 were obtained. Following a five minute exposure of the ileum to an experimental drug, the control concentration of LTD4 was added to the tissue bath. The response of the ileum to LTD4 in the presence of the drug was compared to the response in the absence of the drug. Various degrees of LTD4 antagonism were obtained using 2-4 different concentrations of an experimental compound on a single ileum.
For some of the drugs in this series a more detailed analysis of LTD4 antagonism was made. In these experiments, cumulative concentration-response curves were obtained to LTD4 in guinea pig ileum and trachea. This was followed by a 30 minute incubation with various concentrations of the experimental drug. The concentration response curve to LTD4 was then repeated in the presence of an antagonist. Only one concentration of antagonist was used on a single tissue. KB values were calculated by the method of Furchgott [Ann. N.Y. Acad. Sci., 139, 553 (1967)] using the following equation. [formula]
Dose effect ratio refers to the concentration of agonist required to elicit 50 percent of the maximal response (ED50) in the presence of the antagonist divided by the ED50 in the absence of the antagonist. Calculations were performed with the aid of a computer and a digital plotter. The negative log of the dissociation KB ("pKB ") is given for some of the compounds in the table below.
(§2) Percent inhibition of LTD4 evoked ileal contractions

[3] = system: LTD4 evoked ileal contractions; assay: LTD4 antagonism: inhibition of LTD4 evoked contractions of isolated guinea pig ileum; parameters: species or system Male, Hartley guinea pigs; details: 5 min exposure to drug, 50% inhibition of LTD4 responses, 37° C.
Procedure: as §1, §2

Compound | ED50 [1] | pKB [2] | -log IC50 [3]
CCCc1c(OCCCCc2nnn(Cc3ccc(C(=O)O)c(O)c3)n2)ccc(C(C)=O)c1O [Example 55, 5-[4-(4-Acetyl-3-hydroxyl-2-(n-propyl)phenoxy)-butyl]-2H-tetrahydrazole-2-[4-(methylene)salicylic acid]] | 22 mg/kg | 6.89 | –
CCCc1c(OCCCCc2nnnn2Cc2ccc(C(=O)O)cc2O)ccc(C(C)=O)c1O [Example 56, 5-[4-(4-Acetyl-3-hydroxy-2-(n-propyl)phenoxy)butyl]-1H-tetrazole-1-[(4-methylene)-3-hydroxybenzoic acid]] | – | 6.40 | –
CCCc1c(OCCCCc2nnn(Cc3ccc(Cc4nn[nH]n4)cc3)n2)ccc(C(C)=O)c1O [Example 54] | 22.4 mg/kg | 7.10 | –
CCCc1c(Oc2ccc(-c3nnn(Cc4ccc(C(=O)O)cc4)n3)cc2)ccc(C(C)=O)c1O [Example 58, 5-[Para-(4-Acetyl-3-hydroxy-2-(n-propyl)phenoxy)phenyl]-2H-tetrazole-2-[para(methylene)benzoic acid]] | – | 7.00 | –
CCCc1c(OCCCCc2nnn(Cc3ccc(C(=O)O)cc3)n2)ccc(C(C)=O)c1O [Example 31, 5-[4-(4-Acetyl-3-hydroxy-2-propylphenoxy)butyl]-2H-tetrazole-2-(α-methylene-p-benzoic acid)] | 6.5 mg/kg | 7.190 | 7.75
CCCc1c(OCCCCc2nnn(Cc3ccc(C(=O)O)cc3O)n2)ccc(C(C)=O)c1O [Example 57, 5-[4-(4-Acetyl-3-hydroxy-2-(n-propyl)phenoxy)butyl]-2H-tetrazole-2-[4-(methylene)3-hydroxybenzoic acid]] | 19.8 mg/kg | 7.06 | –
